# Laboratory results from US20260109674A1, “ALLOSTERIC MODULATION OF MUSCARINIC ACETYLCHOLINE RECEPTOR EFFICACY” (The University of Toledo, priority 2022, published 2026).
# Marks after values point to notes of the source that are not given here.
# Assays:
# [1] = system: wild-type zebrafish larvae; experiment: Maximum tolerated concentration (MTC) determination in zebrafish larvae; assay type: in vivo, Danio rerio; details: after 24-hour exposure; Table 3
# Description: Determination of maximum tolerated concentration was completed by placing 5 days post fertilization (dpf) wild-type zebrafish larvae in a 24 well plate at 6 fish per well, and one compound concentration per well. […] Death was determined by the absence of heartbeat. Additional endpoints were used to assess toxicity at non-lethal concentrations such as startle capacity (poke stimulus), abnormalities in swimming behavior (loss of dorsoventral balance), and gross morphological deformities (bent body). […] The MTC determination was used to select three doses of each compound (low, medium, high dose) to be used in behavioral assays.
# [2] = system: wild-type zebrafish larvae; experiment: General locomotor assay in zebrafish larvae (locomotor activity, repetitive behaviors); assay type: in vivo, Danio rerio; details: Table 3; test concentration not given; N = 12
# Description: Five days post fertilization (dpf) zebrafish larvae were exposed to a range of nonlethal concentrations of the compounds in a 24-well plate with appropriate controls. The movement of each larval zebrafish was monitored with the Noldus behavior recording system (Noldus Information Technology, Leesburg VA) and quantified using EthoVision® XT 15 software (Noldus Information Technology, Leesburg VA). The plate was immediately placed in the incubator for a 30-minute exposure period. After 30 minutes, the plate was transferred to the Noldus system and swimming behavior was recorded in 100% light for 30 minutes to measure spontaneous swimming behavior. The light was switched off for 10 minutes (dark period) and then switched on for 10 minutes (light period), which was then repeated for two additional cycles. In total, the larvae were exposed to three cycles of alternating 10-minute dark and light periods (100% darkness-to-100% light). […]
# All data for exposure and the behavioral end points were analyzed by one-way ANOVA (factor: drug conc) followed by a Dunnett's multiple comparisons test for post hoc significance between drug concentration and control group. Statistically significant differences are noted as follows: *, p<0.05; **, p<0.01; ***, p<0.001.
# [3] = target: T1, M1 muscarinic receptors expressed in CHO cells (Homo sapiens, UniProt P11229); experiment: [3H]-arachidonic acid release screen with and without ACh and modulator; assay type: cell-based; details: for Modulation of ACh activity (in words): [3H]AA release; for Modulation of ACh activity (in words) / Intrinsic agonist activity (in words): modulator 10 μM; for Intrinsic agonist activity (in words): without ACh
# T1 construct: expressed in transfected cells; host or cells: CHO (CHO-hM1, stably transfected)
# T1 sequence (P11229 1-460): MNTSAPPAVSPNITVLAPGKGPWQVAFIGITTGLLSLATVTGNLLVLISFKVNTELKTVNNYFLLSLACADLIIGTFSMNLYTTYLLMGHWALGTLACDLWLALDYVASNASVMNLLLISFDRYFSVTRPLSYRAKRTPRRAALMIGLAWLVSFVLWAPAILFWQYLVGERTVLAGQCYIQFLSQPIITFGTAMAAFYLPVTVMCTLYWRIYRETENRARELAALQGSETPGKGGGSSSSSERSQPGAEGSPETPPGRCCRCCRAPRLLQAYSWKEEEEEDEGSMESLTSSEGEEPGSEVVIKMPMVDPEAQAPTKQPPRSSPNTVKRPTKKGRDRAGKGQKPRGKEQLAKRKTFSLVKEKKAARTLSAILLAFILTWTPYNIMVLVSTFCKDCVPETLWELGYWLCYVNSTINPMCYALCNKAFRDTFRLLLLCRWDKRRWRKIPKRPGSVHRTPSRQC
# Description: CHO cells expressing human M1 muscarinic receptors were cultured at 37° C. in a 5% CO2 atmosphere in F12 medium supplemented with 5% fetal bovine serum, 100 units/mL penicillin, and 100 μg/mL streptomycin.
# Measurement of [^3H]AA release was performed. Stably transfected CHO-hM1 or CHO-hM3 cells were seeded on 24-well plates (Greiner Bio-One GmbH, Frickenhausen, Germany) at a density of 5.0×10^4 cells/well in 0.5 ml of F-12 medium. Cells were incubated until they attached (approximately 3 h), followed by the addition of [^3H]AA to a final concentration of 0.05 μCi of [^3H]AA per well. The cells were then grown for 16 to 20 h before the assay was performed. [^3H]AA release was measured in Eagle's basal medium with 20 mM HEPES and 2 mg/ml fatty acid-free bovine serum albumin (EM-BSA). Cells were rinsed twice with EM-BSA, followed by the addition of EM-BSA media containing experimental agents and incubated for 1 h at 37° C. The assay was terminated by aspiration of the media, and the amount of [^3H]AA released was determined by liquid scintillation counting (Beckman-Coulter LS6500).
# For some assays, pretreatment with phenoxybenzamine (POB) was employed, as indicated, to reduce the number of available receptors per cell. Stock POB was made up at 10 mM in ethanol and stored at −20° C. Each well was pretreated with 0.5 ml of the appropriate concentration in PBS with 1 mM CaCl2 and 1 mM MgCl2 (PBS++) for 30 min at 37° C., followed by 5 washes with PBS++. After pretreatment, the normal protocol was followed as above.
# Tabulated [^3H]AA release data are represented as a fraction of maximal release in the presence of 100 μM ACh or as the fraction of release elicited by the appropriate concentration of ACh alone, as indicated dose-response curves were normalized to the maximal response of ACh without allosteric ligand. Some response curves were analyzed using the empirical four-parameter equation: […]
# Disintegration per minute (DPM) values for a single compound were obtained in triplicate, and each compound was evaluated on three separate 24-well plates. The mean values for each condition from each of the three 24-well plates were used for the statistical analysis. The baseline mean was subtracted from each value, then normalized to the mean response produced by 100 μM ACh (set at 1.0). Statistical analyses were completed on the normalized values via one-way repeated measures ANOVA with Tukey's post hoc test. Statistically significant differences are noted as follows: *, p<0.05; **, p<0.01; ***, p<0.001.
# [4] = 10 μM modulator, Table 4, N = 4-5
SMILES,Maximum Tolerated Concentration [1],"Ratio of response of ACh with modulator to response of ACh alone, 0.1 μM ACh ([3]; 10 μM modulator, Table 1)","Ratio of response of ACh with modulator to response of ACh alone, 100 μM ACh ([3]; 10 μM modulator, Table 1)","Stimulation of [3H]AA release, No ACh (fraction of stimulation above the control) ([3]; 10 μM modulator, Table 1)",also measured
"CCCCc1oc2ccccc2c1C(=O)c1cc(I)c(OCCN(CC)CC)c(I)c1 [Amiodarone, reference compound]",10 µM,,,,
"COc1ccc(Cn2cc(C(=O)O)c(=O)c3ccccc32)cc1 [BQCA, reference compound]",,2.34 ± 0.23,0.86 ± 0.03,0.37 ± 0.04,"Angular Velocity [2]: 141.8 ± 14.9* % of control; Total Distance Moved [2]: 72.0 ± 10.0* % of control; Variance of Turn Angle [2]: 119.6 ± 7.0* % of control; Ratio of response of ACh with modulator to response of ACh alone, 0.1 μM ACh ([3]; 3 μM modulator, Table 1): 2.43 ± 0.19; Ratio of response of ACh with modulator to response of ACh alone, 100 μM ACh ([3]; 3 μM modulator, Table 1): 0.99 ± 0.02; Stimulation of [3H]AA release, No ACh (fraction of stimulation above the control) ([3]; 3 μM modulator, Table 1): 0.06 ± 0.06"
"CCCCc1oc2ccccc2c1C(=O)c1cc(I)c(OCCNCC)c(I)c1.Cl [Compound 1, (2-butylbenzofuran-3-yl)(4-(2-(ethylamino)ethoxy)-3,5-diiodophenyl)methanone hydrochloride]",3 µM,0.75 ± 0.08,0.67 ± 0.02,0.22 ± 0.01,Modulation of ACh activity (in words) [3]: weaker efficacy PAM relative to amiodarone
"CCCCc1oc2ccccc2c1C(=O)c1cc(I)c(OCCN(CC)C(C)=O)c(I)c1 [Compound 5a, N-(2-(4-(2-butylbenzofuran-3-carbonyl)-2,6-diiodophenoxy)ethyl)-N-ethylacetamide]",10 µM,2.22 ± 0.26,1.58 ± 0.03,0.17 ± 0.04,Increase of mAChR activity compared to treatment with ACh alone ([3]; 10 μM modulator): 70%; Intrinsic agonist activity (in words) [3]: significant intrinsic agonist activity
"CCCCc1oc2ccccc2c1C(=O)c1cc(I)c(OCCN(CC)C(=O)c2ccccc2)c(I)c1 [Compound 5b, N-(2-(4-(2-butylbenzofuran-3-carbonyl)-2,6-diiodophenoxy)ethyl)-N-ethylbenzamide]",10 µM,1.34 ± 0.05,1.26 ± 0.05,0.02 ± 0.01,Increase of mAChR activity compared to treatment with ACh alone ([3]; 10 μM modulator): 80%; Intrinsic agonist activity (in words) [3]: lacked intrinsic activity
"CCCCc1oc2ccccc2c1C(=O)c1ccc(OC)cc1 [Compound 6a, (2-butylbenzofuran-3-yl)(4-methoxyphenyl)methanone]",3 µM,1.18 ± 0.06,1.03 ± 0.03,0.05 ± 0.01,
"CCCCc1oc2ccccc2c1C(=O)c1cc(I)c(OC)c(I)c1 [Compound 6b, (2-butylbenzofuran-3-yl)(3,5-diiodo-4-methoxyphenyl)methanone]",30 µM,1.6 ± 0.07,1.32 ± 0.08,0.06 ± 0.01,Modulation of ACh activity (in words) [3]: increased ACh activity
"CCCCc1oc2ccccc2c1C(=O)c1ccc(OCCN(CC)CC)cc1 [Compound 6c, (2-butylbenzofuran-3-yl)(4-(2-(diethylamino)ethoxy)phenyl)methanone]",3 µM,0.46 ± 0.17,1.05 ± 0.05,0.05 ± 0.04,Modulation of ACh activity (in words) [3]: decreased ACh activity
"COc1ccc(CN2C(=O)C(=O)c3ccccc32)cc1I [Compound 8b, 1-(3-iodo-4-methoxybenzyl)indoline-2,3-dione]",10 µM,1.81 ± 0.04,1.24 ± 0.01,0.08 ± 0.01,
"COc1ccc(CN2C(=O)C(=O)c3ccccc32)cc1Br [Compound 8d, 1-(3-bromo-4-methoxybenzyl)indoline-2,3-dione]",100 µM,1.31 ± 0.06,0.87 ± 0.01,0.04 ± 0.01,
COc1c(I)cc(Cn2cc(C(=O)O)c(=O)c3ccccc32)cc1I [GK-1-47],,,,,"Ratio of response of ACh with modulator to response of ACh alone, 0.1 μM ACh [3, 4]: 2.46 ± 0.13; Ratio of response of ACh with modulator to response of ACh alone, 100 μM ACh [3, 4]: 1.33 ± 0.04; Stimulation of [3H]AA release, No ACh (fraction of stimulation above the control) [3, 4]: 0.24 ± 0.01"
"O=C1C(=O)N(Cc2ccc(Br)cc2)c2ccccc21 [VU0119498, reference compound]",,1.22 ± 0.34,1.04 ± 0.07,0.07 ± 0.00,
